Assay results published in PMC12257073 (Cancer Research Communications, 2025).
Where “and” joins values, the source holds several entries; their conditions need not be identical. Equal entries are not always repeated. Where two headings read alike, the source gives them in different places.

System: newly diagnosed AML with mutations in TP53 and/or complex karyotype
[1] = TP53-mutated patients, TP-0903 + decitabine, n = 20
[2] = group 1, 37 mg TP-0903 + decitabine, 15 patients
[3] = group 1, TP-0903 37 mg/day + decitabine, n = 15
[4] = group 2, 25 mg TP-0903 + decitabine, 12 patients
[5] = group 2, TP-0903 25 mg/day + decitabine, n = 12
[6] = overall, TP-0903 + decitabine, n = 27

Experimental: Dose-limiting toxicities (DLT) were evaluated to establish the dose brought forward for an expansion cohort (phase 2).
The primary endpoint was achievement of CR within six cycles of therapy. Secondary endpoints included toxicity, duration of response, OS, and the proportion of eligible patients who effectively transitioned to allogeneic stem cell transplantation. Exploratory endpoints included pharmacokinetics (PK), correlative genetic, and biochemical data; correlations between morphologic remission, spectral flow cytometry, and mutational remission; and duration of remission or survival. […] Adverse events (AE) were graded according to the NCI Common Terminology Criteria for Adverse Events version 4.0 ([27]).
The phase 1b portion of the study used a standard 3 + 3 design with dose-escalation based on DLT. […] In the first stage, if four or more of 12 patients achieved CR, then an additional 21 patients would be enrolled for a total of 33 patients. At the end of the study, if 12 or more of all 33 patients achieved CR, then the null hypothesis would be rejected.

For CN1CCN(Cc2ccc(Nc3ncc(Cl)c(Nc4ccccc4S(=O)(=O)N(C)C)n3)cc2)CC1.O=C(O)C(O)C(O)C(=O)O.O=C(O)C(O)C(O)C(=O)O [TP-0903, 2-(5-chloro-2-(4-((4-methylpiperazin-1-yl)methyl)phenylamino)pyrimidin-4-yl)amino-N,N-dimethylbenzene-1-sulfonamide di-tartrate salt], the “Best response by 6 cycles: CR” value [1] was 5 (25) no. (%), the “Best response by 6 cycles: CRh” value [1] was 4 (20) no. (%) and the “Best response by 6 cycles: CRi” value [1] was 0 (0) no. (%). For the same compound, the “Best response by 6 cycles: MLFS” value [1] was 2 (10) no. (%), the “Best response by 6 cycles: NE (not evaluable)” value (from here on “Best response … (not evaluable)”) [1] was 4 (20) no. (%) and the “Best response by 6 cycles: SD” value [1] was 4 (20) no. (%). For the same compound, the “Best response by 6 cycles: Treatment failure” value [1] was 1 (5) no. (%), the “Overall composite remission rate (CR/CRh/CRi)” value [1] was 9 (45, 23.1–68.5) no. (%, 95% CI) and the “Overall response rate (CR/CRh/CRi/MLFS)” value [1] was 11 (55, 31.5–76.9) no. (%, 95% CI). For the same compound, the “CR in patients without a TP53 mutation” value (five patients without a TP53 mutation, TP-0903 + decitabine) was “none of the five patients without a TP53 mutation achieved CR”, the “Overall composite remission rate (CR/CRi/CRh)” value (group 1, 37 mg TP-0903 + decitabine, 5/15) was 33.3% and the “CR rate within six cycles (primary endpoint)” value [2] was 13.3% and 13%. The CRh rate [2] was 20%, the MLFS rate [2] was 7% and the “Stable disease (SD) rate” value [2] was 33%. The Treatment failure rate [2] was 13%, the “Best response by 6 cycles: CR” value [3] was 2 (13.3) no. (%) and the “Best response by 6 cycles: CRh” value [3] was 3 (20) no. (%). The “Best response by 6 cycles: CRi” value [3] was 0 (0) no. (%), the “Best response by 6 cycles: MLFS” value [3] was 1 (6.7) no. (%) and the “Best response … (not evaluable)” value [3] was 2 (13.3) no. (%). For the same compound, the “Best response by 6 cycles: SD” value [3] was 5 (33.3) no. (%), the “Best response by 6 cycles: Treatment failure” value [3] was 2 (13.3) no. (%) and the “Overall composite remission rate (CR/CRh/CRi)” value [3] was 5 (33.3, 11.8–61.6) no. (%, 95% CI). For the same compound, the “Overall response rate (CR/CRh/CRi/MLFS)” value [3] was 6 (40, 16.3–67.7) no. (%, 95% CI), the “Overall composite remission rate (CR/CRi/CRh)” value (group 2, 25 mg TP-0903 + decitabine, 6/12) was 50% and the “CR rate within six cycles (primary endpoint)” value [4] was 25%. It also gave a CRh rate [4] of 8%, a CRi rate [4] of 17% and an MLFS rate [4] of 8%. For the same compound, the “Patients who stopped treatment within four and 5 days because of AEs” value [4] was 17%, the “Stable disease (SD) rate” value [4] was 25% and the “Best response by 6 cycles: CR” value [5] was 3 (25) no. (%). For the same compound, the “Best response by 6 cycles: CRh” value [5] was 1 (8.3) no. (%), the “Best response by 6 cycles: CRi” value [5] was 2 (16.7) no. (%) and the “Best response by 6 cycles: MLFS” value [5] was 1 (8.3) no. (%). For the same compound, the “Best response … (not evaluable)” value [5] was 2 (16.7) no. (%), the “Best response by 6 cycles: SD” value [5] was 3 (25) no. (%) and the “Best response by 6 cycles: Treatment failure” value [5] was 0 (0) no. (%). The “Overall composite remission rate (CR/CRh/CRi)” value [5] was 6 (50, 21.1–78) no. (%, 95% CI), the “Overall response rate (CR/CRh/CRi/MLFS)” value [5] was 7 (58.3, 27.7–84.8) no. (%, 95% CI) and the “Best response by 6 cycles: CR” value [6] was 5 (18.5) no. (%). The “Best response by 6 cycles: CRh” value [6] was 4 (14.8) no. (%), the “Best response by 6 cycles: CRi” value [6] was 2 (7.4) no. (%) and the “Best response by 6 cycles: MLFS” value [6] was 2 (7.4) no. (%). For the same compound, the “Best response … (not evaluable)” value [6] was 4 (14.8) no. (%), the “Best response by 6 cycles: SD” value [6] was 8 (29.6) no. (%) and the “Best response by 6 cycles: Treatment failure” value [6] was 2 (7.4) no. (%). The “Overall composite remission rate (CR/CRh/CRi)” value [6] was 11 (40.7, 22.4–61.2) no. (%, 95% CI), the “Overall response rate (CR/CRh/CRi/MLFS)” value [6] was 13 (48.2, 28.7–68.1) no. (%, 95% CI) and the “Overall composite remission rate (CR/CRi/CRh)” value (patients with a TP53 mutation (n = 20), irrespective of group, 9/20) was 45%. The “True CR rate” value (patients with mutant TP53 who received 25 mg TP-0903 + decitabine, 3 of 9) was 33.3%.
